This note sets out measurements from ChEMBL document CHEMBL1201862, “PubChem BioAssay data set” (2004).

Test systems include OVCAR-3; OVCAR-4; HCT-15; SF-295; SF-539; K562; HL-60; NCI-H23; UO-31; RXF 393; A498; UACC-257; SR; UACC-62; SN12C.
Experiment in all cases: growth of human tumour cells (NCI), 48 h

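Following 48 hours of exposure in 96-well plates, responses at five concentrations were used to interpolate endpoints linearly. GI50 is the concentration that inhibits growth by half.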 Active and inactive are the calls of the source. No stated cut-off is given here; in the data, active = GI50 up to about 1.1 µM and inactive = higher.

Take `CCO/C=C/C(C)C1(C(=O)OCC)CCCCC1=O` (configuration not stated): the GI50 with OVCAR-3 was > 100 µM (inactive); in the test with OVCAR-4, > 100 µM (inactive); with HCT-15 it was 63.1 µM; with SF-295, > 100 µM (inactive); with SF-539, > 100 µM (inactive); in the test on K562, > 100 µM (inactive). In addition, the GI50 in the test with HL-60 is 71.1 µM (inactive); in the test with NCI-H23, > 100 µM (inactive); in the test on UO-31 it was > 100 µM (inactive); in the test with RXF 393 it was > 100 µM (inactive); in the test on A498, > 100 µM (inactive); with UACC-257, > 100 µM (inactive). Further, the GI50 in the test with SR, in the test with UACC-62 and in the test with SN12C was > 100 µM (inactive) in each case.
`Oc1ccc2c3c1OC1C(=NN=C4CCC5(O)C6Cc7ccc(O)c8c7C5(CCN6CC5CC5)C4O8)CCC4(O)C(C2)N(CC2CC2)CCC314` (configuration not stated): the GI50 with OVCAR-3 was 18.5 µM (inactive); in the test on OVCAR-4, 25.6 µM (inactive); in the test with HCT-15 it was greater than 100 µM; with SF-295 it was 17 µM (inactive); with SF-539 it was 27.1 µM (inactive); in the test with K562 it was 17.2 µM (inactive). The GI50 with HL-60 is 16.4 µM (inactive); with NCI-H23, > 57.5 µM (inactive); in the test with UO-31, > 100 µM (inactive); with RXF 393 it was 40 µM (inactive); in the test on A498, > 42.8 µM (inactive); with UACC-257, 20.4 µM (inactive). Moreover, the GI50 was 26.7 µM (inactive) with SR, 20.5 µM (inactive) in the test with UACC-62 and > 41.3 µM (inactive) in the test with SN12C.
With `O=C1CCCC/C(=C/c2ccccc2)N1`, the GI50 with OVCAR-3 was > 100 µM (inactive); with OVCAR-4 it was > 100 µM (inactive); with HCT-15, greater than 100 µM; with SF-295, > 100 µM (inactive); with SF-539, > 100 µM (inactive); with K562, > 100 µM (inactive). Moreover, the GI50 in the test on HL-60, with NCI-H23, with UO-31, in the test with RXF 393, in the test with A498 and with UACC-257 was > 100 µM (inactive) in each case. Also, the GI50 in the test on SR, in the test with UACC-62 and with SN12C was > 100 µM (inactive) in each case.
For the molecule `NC1=NN(c2ccccc2)C(=O)C1C(=O)C(=O)Nc1nccs1` (configuration not stated), the GI50 with OVCAR-3 was > 100 µM (inactive); with OVCAR-4 it was > 100 µM (inactive); with HCT-15, greater than 100 µM; in the test on SF-295 it was > 100 µM (inactive); in the test on SF-539 it was > 100 µM (inactive); in the test with K562, > 100 µM (inactive). For the same molecule, the GI50 in the test with HL-60, in the test with NCI-H23, in the test on UO-31, in the test with RXF 393, with A498 and with UACC-257 was > 100 µM (inactive) throughout. The GI50 in the test with SR, in the test with UACC-62 and in the test with SN12C was > 100 µM (inactive) in each case.
On to `O=C(C(=O)N1CC2C=CC1CC2)c1c[nH]c2ccccc12` (configuration not stated), for which the GI50 in the test with OVCAR-4 is > 100 µM (inactive); in the test with HCT-15 it was greater than 100 µM; in the test with SF-295, > 100 µM (inactive); in the test with SF-539 it was > 100 µM (inactive); in the test on K562 it was > 100 µM (inactive); in the test on HL-60, > 100 µM (inactive). Moreover, the GI50 in the test with UO-31, in the test with RXF 393, in the test on A498, with UACC-257, in the test with SR and with UACC-62 was > 100 µM (inactive) each time. In addition, the GI50 in the test with SN12C was > 100 µM (inactive).
On to `Cc1ccc2nc(NC(=O)C(=O)C(C(=O)c3ccc4ccccc4c3)C3OC(=O)c4ccccc43)sc2c1` (configuration not stated), for which the GI50 was 22.9 µM (inactive) in the test on OVCAR-3; 22.7 µM (inactive) in the test on OVCAR-4; greater than 10 µM with HCT-15; 4.61 µM (inactive) with SF-295; 2.63 µM (inactive) in the test with SF-539; 4.99 µM (inactive) in the test with NCI-H23. Also, the GI50 is 14.6 µM (inactive) in the test with UO-31; 1.87 µM (inactive) in the test with RXF 393; 5.48 µM (inactive) in the test with A498; 13.1 µM (inactive) in the test on UACC-257; 3.33 µM (inactive) with SR; 6.98 µM (inactive) in the test with UACC-62. For the same molecule, the GI50 with SN12C is 13.5 µM (inactive).
Take `COc1ccc(-c2cc(=O)c3ccccc3[nH]2)c(OC)c1`: the GI50 is > 100 µM (inactive) in the test on OVCAR-3; greater than 100 µM in the test with HCT-15; > 100 µM (inactive) in the test on SF-295; > 100 µM (inactive) in the test on SF-539; > 100 µM (inactive) in the test with K562; 73.6 µM (inactive) in the test with HL-60. The GI50 in the test with NCI-H23, in the test with UO-31, with RXF 393, in the test on UACC-257, with SR and with UACC-62 was > 100 µM (inactive) in each case. Further, the GI50 in the test on SN12C is > 100 µM (inactive).
Take `CC(=O)O[C@H]1CC[C@@]2(C)C(=CC[C@@H]3C2CC[C@]2(C)Nc4[nH]ncc4CC32)C1` (some centres not stated): the GI50 was 19.2 µM (inactive) in the test with OVCAR-3; 18.5 µM (inactive) in the test with OVCAR-4; 17.5 µM in the test on HCT-15; 42.2 µM (inactive) with SF-295; 20 µM (inactive) in the test with SF-539; 20.7 µM (inactive) in the test with K562. Besides, the GI50 in the test with HL-60 is 20.5 µM (inactive); in the test with NCI-H23, 27.5 µM (inactive); in the test on UO-31, 87.7 µM (inactive); with RXF 393, 30.4 µM (inactive); with A498 it was > 100 µM (inactive); in the test on UACC-257 it was 16.6 µM (inactive). Besides, the GI50 with UACC-62 is 26.1 µM (inactive).
With `CC(C)(C)C1CC[C@H]2c3c([nH]c4ccc(Br)cc34)[C@H]3C(=O)N(c4ccccc4)C(=O)[C@H]3[C@H]2C1` (some centres not stated), the GI50 in the test on OVCAR-3 is 75.2 µM (inactive); in the test on OVCAR-4, 11.2 µM (inactive); with SF-295, 14 µM (inactive); in the test with K562, 11.5 µM (inactive); with HL-60, 7.71 µM (inactive); in the test on NCI-H23, 27.9 µM (inactive). Besides, the GI50 in the test on UO-31 is 74.8 µM (inactive); in the test with RXF 393, 32.7 µM (inactive); in the test on UACC-257, > 100 µM (inactive); in the test with SR, 3.22 µM (inactive); in the test on UACC-62 it was 23.3 µM (inactive); in the test on SN12C, 13.5 µM (inactive).
Regarding `N#CCC(=O)N/N=C1/C(=O)NC(=O)C(=O)C1c1nc2ccccc2s1` (configuration not stated), the GI50 is > 100 µM (inactive) in the test with OVCAR-3; > 100 µM (inactive) in the test with OVCAR-4; greater than 100 µM in the test on HCT-15; > 100 µM (inactive) in the test with SF-295; > 100 µM (inactive) in the test with SF-539; > 100 µM (inactive) in the test on K562. Besides, the GI50 in the test with NCI-H23 is > 100 µM (inactive); in the test on UO-31, > 100 µM (inactive); in the test on RXF 393, > 100 µM (inactive); in the test on A498, > 100 µM (inactive); with UACC-257, > 100 µM (inactive); with SR, 71.8 µM (inactive). Further, the GI50 with UACC-62 and in the test with SN12C was > 100 µM (inactive) throughout.
As for `CCC(C)Cn1c(C)nc2c1C(=O)c1ccccc1C2=O` (configuration not stated), the GI50 was 23.3 µM (inactive) in the test with OVCAR-3; 38 µM (inactive) in the test on OVCAR-4; 17.5 µM in the test on HCT-15; 38.8 µM (inactive) with SF-295; 17.7 µM (inactive) with SF-539; 5.42 µM (inactive) in the test with K562. The GI50 in the test on HL-60 was 5.06 µM (inactive); with NCI-H23, 20.7 µM (inactive); in the test on UO-31, 24.5 µM (inactive); in the test on RXF 393, 33.9 µM (inactive); with UACC-257, 23.5 µM (inactive); with SR, 2.81 µM (inactive). Further, the results for the GI50 in the test with UACC-62 and in the test on SN12C were 9.98 µM (inactive) and 36.1 µM (inactive), respectively.
On to `CCCCCCCCCCCCOP(N)(=O)OCCCCCCCCCCCC`, for which the GI50 is > 100 µM (inactive) with OVCAR-3; greater than 100 µM in the test with HCT-15; > 100 µM (inactive) with SF-295; > 100 µM (inactive) with SF-539; > 100 µM (inactive) with K562; > 100 µM (inactive) in the test on HL-60. Moreover, the GI50 in the test on NCI-H23, in the test with UO-31, with RXF 393, with UACC-257, with SR and in the test with UACC-62 was > 100 µM (inactive) in each case. Further, the GI50 in the test on SN12C was > 100 µM (inactive).
Take `CC1(C)C(=O)C(C)(C)C1=S`: the GI50 is > 100 µM (inactive) with OVCAR-3; > 100 µM (inactive) in the test on OVCAR-4; greater than 100 µM in the test with HCT-15; > 100 µM (inactive) in the test with SF-295; > 100 µM (inactive) with K562; > 100 µM (inactive) in the test on HL-60. Further, the GI50 with NCI-H23, in the test with UO-31, in the test on A498, in the test on UACC-257, with SR and in the test with UACC-62 was > 100 µM (inactive) each time. Moreover, the GI50 in the test with SN12C is > 100 µM (inactive).
For `COC(C)(C)[C@H](O)C(O)CC(C)[C@@H]1CCC23CC12CCC1[C@@]2(C)CCC(OC(C)=O)C(C)(C)C2CC(OC2OC(COC(C)=O)C(O)C(O)C2O)[C@]13C` (some centres not stated), the GI50 in the test on OVCAR-3 is 3.29 µM (inactive); with OVCAR-4 it was 4.55 µM (inactive); with HCT-15, 1.86 µM; with SF-295, 3.21 µM (inactive); in the test with SF-539, 2.72 µM (inactive); in the test with K562 it was 2.34 µM (inactive). The GI50 with HL-60 was 1.35 µM (inactive); in the test on NCI-H23, 7.18 µM (inactive); in the test with UO-31, 6.95 µM (inactive); in the test with RXF 393, 4.05 µM (inactive); in the test on A498, 8.83 µM (inactive); in the test on UACC-257, 3.76 µM (inactive). The GI50 in the test on UACC-62 is 2.77 µM (inactive); in the test on SN12C, 2.99 µM (inactive).
